One data set can be described thus: Oral toxicity in mice. Format: in vivo. The following applies: orally administered to mice, 1,000 mg/kg.
Data set [1] deals with Staphylococcus aureus B83-1 strain (derived from Newbould 305). As to the kind of experiment: Therapeutic test in bovine mammary glands with experimental mastitis. Format: in vivo, Holstein dairy cow. On the procedure: As the rifamycin derivative (1), a compound A wherein R is methyl group, i. e. R≡ CH3, was examined for its therapeutic effect on bovine mastitis as follows.
The therapeutic test for infection in bovine mammary glands was carried out by inoculating […] of Staphylococcus [Staphylococcus aureus B83-1 strain (derived from Newbould 305)] into one mammary gland of a Holstein dairy cow (2-5 years old) to cause experimental mastitis.
To one mammary gland of each cow in a treated group, the compound A used in the present invention was administered (infused through the lactiferous duct) in an amount of 50 mg in 10 ml of benzyl alcohol per day successively for two days, twenty-one days after the infection. To one mammary gland of each cow in a control group, benzyl alcohol was administered in an amount of 10 ml per day in the same manner as in the treated group. The therapeutic effect of the compound A was examined by counting colony forming units (CFUs) of Staphylococcus in 1 ml of milk obtained from a cow subjected to the test. Comparing the above two groups, the therapeutic effect of the compound A on bovine mastitis was evaluated.
Staphylococcus was inoculated into forty-four mammary glands of eleven cows. Twenty-one days later, the number of mammary glands wherein Staphylococcus was separated from milk, i.e. number of mammary glands with mastitis, was counted. […]

In another data set the test system is S. aureus B83-1. As to the kind of experiment: MIC, microbroth dilution, strain B83-1. Format: cell-based, Staphylococcus aureus. On the procedure: Four S. aureus strains were used: S. aureus 30857, a rifampin-resistant isolate: S. aureus 6097, a strain used in the mouse mastitis test and originally from a case of gangrenous bovine mastitis; S. aureus B83-1, derived from the Newbould 305 strain; and S. aureus ATCC 29213, the in vitro control stain recommended by NCCLS.
All S. aureus strains were maintained on 3 mm glass beads immersed in trypticase soy broth (BBL Microbiology Systems, Cockeysville, Md.) with 10% glycerol and held at −70° C. until revived. Prior to testing, the strains were subcultured on tryptose blood agar base (Difco, Detroit, Mich.) supplemented with 5% sheep blood for 24 hours at 35° C.
These compounds were dissolved in 95% ethanol, a solution which was then diluted to 10% ethanol with sterile distilled water. Further dilutions were conducted in water.
MIC (Minimum Inhibitory Concentration) determinations were performed using the microbroth dilution method. (National Committee for Clinical Laboratory Standards, 1990 Approved Standard […]. Methods for dilution antimicrobial susceptibility tests for bacteria that grow aerobically, 3rd edition. National Committee for Clinical Laboratory Standards, Villanova, Pa.) The results are shown in Table 3, wherein R is the alkyl group R in the rifamycin derivative (1).
Background: Dilution methods test growth across graded concentrations, often in twofold steps.

In data set [2] the test system is rifampin-resistant S. aureus 12637. As to the kind of experiment: microbe, parasite or virus in culture. The following applies: strain 12637. Format: cell-based, Staphylococcus aureus. On the procedure:
(§1) The antibacterial effect of the rifamycin derivative (1) against rifampin-resistant Staphylococcus aureus bacterial strains was determined. The tested bacterial strains were isolated from a variety of animal diseases as well as laboratory strains.
(§2) All bacteria were maintained on 3 mm glass beads immersed in trypticase soy broth (BBL Microbiology Systems, Cockeysville, Md.) with 10% glycerol and held at −70° C. until revived. Prior to testing, the organisms were subcultured on tryptose blood agar base (Difco, Detroit, Mich.) supplemented with 5% sheep blood for 24 hours at 35° C.
(§3) The compounds were dissolved in 95% ethanol and diluted to 10% ethanol in sterile, distilled water except for the compounds used in the in vivo testing where saline was used to dilute the original ethanol/drug suspension. Further dilutions were conducted in water or saline.
(§4) MICs were determined using the microbroth dilution method. In addition to the test organisms, the following quality control strain also was tested: Staphylococcus aureus ATCC 29213. The results are shown in Table 5, wherein R is the alkyl group R in the rifamycin derivative (1).

For data set [3], the system named is rifampin-resistant S. aureus 30858. In words: microbe, parasite or virus in culture. It is filed as cell-based, Staphylococcus aureus. The following applies: strain 30858. On the procedure: as §1, §2, §3, §4
Data set [4] deals with rifampin-resistant S. aureus 30859. In words: microbe, parasite or virus in culture. The following applies: strain 30859. Format: cell-based, Staphylococcus aureus. The protocol:
as §1, §2, §3, §4

Data set [5] relates to rifampin-resistant S. aureus 30860. As to the kind of experiment: microbe, parasite or virus in culture. Format: cell-based, Staphylococcus aureus. The following applies: strain 30860. On the procedure: as §1, §2, §3, §4
The subject of data set [6] is rifampin-resistant S. aureus 30862. In words: microbe, parasite or virus in culture. It is filed as cell-based, Staphylococcus aureus. The following applies: strain 30862. The protocol:
as §1, §2, §3, §4

For data set [7], the system named is rifampin-resistant S. aureus 30863. As to the kind of experiment: microbe, parasite or virus in culture. Format: cell-based, Staphylococcus aureus. The following applies: strain 30863. On the procedure: as §1, §2, §3, §4
Data set [8] concerns rifampin-resistant S. aureus 30865. In words: microbe, parasite or virus in culture. Format: cell-based, Staphylococcus aureus. The following applies: strain 30865. The protocol: as §1, §2, §3, §4
Data set [9] concerns rifampin-resistant S. aureus 30867. In words: microbe, parasite or virus in culture. The following applies: strain 30867. It is filed as cell-based, Staphylococcus aureus. On the procedure: as §1, §2, §3, §4
In data set [10] the test system is rifampin-resistant S. aureus 30869. In words: microbe, parasite or virus in culture. It is filed as cell-based, Staphylococcus aureus. The following applies: strain 30869. On the procedure:
as §1, §2, §3, §4

In data set [11] the test system is rifampin-resistant S. aureus 30871. As to the kind of experiment: microbe, parasite or virus in culture. The following applies: strain 30871. It is filed as cell-based, Staphylococcus aureus. The protocol:
as §1, §2, §3, §4

In data set [12] the test system is rifampin-resistant S. aureus 30888. As to the kind of experiment: microbe, parasite or virus in culture. It is filed as cell-based, Staphylococcus aureus. The following applies: strain 30888. On the procedure: as §1, §2, §3, §4
Data set [13] deals with rifampin-resistant S. aureus 31068. In words: microbe, parasite or virus in culture. Format: cell-based, Staphylococcus aureus. The following applies: strain 31068. The protocol: as §1, §2, §3, §4
Data set [14] concerns rifampin-resistant S. aureus B93-728M. As to the kind of experiment: microbe, parasite or virus in culture. The following applies: strain B93-728M. Format: cell-based, Staphylococcus aureus. On the procedure: as §1, §2, §3, §4
The mark [15] stands for this setting: Staphylococcus aureus, read-out: MIC.

The text below walks through data of patent publication US6486161B1, “Use of rifamycin derivative for treating mastitis in a domestic animal” (priority 2000, dated 2002).

In brackets after ≈: the same amount, converted by molar mass. Read-outs that look alike come from different tables or passages of the source.

On to `COC1/C=C/OC2(C)Oc3c(C)c(O)c4c(=O)c(c5oc6cc(N7CCN(C)CC7)cc(O)c6nc-5c4c3C2=O)NC(=O)/C(C)=C\C=C\C(C)C(O)C(C)C(O)C(C)C(OC(C)=O)C1C` (stereo not shown) [R = methyl], for which the toxicity entry in “Oral toxicity in mice” is listed as “did not show any toxicity”. Moreover, the curing ratio in data set [1] (cow, 50 mg per day for two days infused through the lactiferous duct, twenty-one days after infection) amounted to 64%. Further, the “mammary glands negative (at most ten CFU per ml milk) in all the examined days” value in [1] (of twenty-two treated mammary glands, 50 mg in 10 ml benzyl alcohol per day for two days via lactiferous duct, 7-28 days after administration) was “fourteen”. Also, the MIC against S. aureus B83-1 is 0.061 ng/mL (≈ 6.79e-05 µM); in data set [2] it was 0.25 µg/mL (≈ 0.278 µM); in data set [3], 2.0 µg/mL (≈ 2.22 µM); in data set [4] it was 0.25 µg/mL (≈ 0.278 µM); in data set [5], 4.0 µg/mL (≈ 4.45 µM); in [6], 2.0 µg/mL (≈ 2.22 µM). For the same molecule, the MIC in data set [7] amounted to 0.25 µg/mL (≈ 0.278 µM); in data set [8] it was 0.06 µg/mL (≈ 0.0667 µM); in [9], 0.5 µg/mL (≈ 0.556 µM); in data set [10], 0.25 µg/mL (≈ 0.278 µM); in data set [11], 2.0 µg/mL (≈ 2.22 µM); in [12], 0.13 µg/mL (≈ 0.145 µM). Further, the MIC in [13] stood at 2.0 µg/mL (≈ 2.22 µM); in data set [14], 0.5 µg/mL (≈ 0.556 µM).
Consider `CO[C@H]1/C=C/O[C@@]2(C)Oc3c(C)c(O)c4c(O)c(c(/C=N/N5CCN(C)CC5)c(O)c4c3C2=O)NC(=O)/C(C)=C\C=C\[C@H](C)[C@H](O)[C@@H](C)[C@@H](O)[C@@H](C)[C@H](OC(C)=O)[C@@H]1C` [Rifampin, reference compound], for which the MIC in the data set on S. aureus B83-1 (Staphylococcus aureus, B831, read-out: MIC) is 1.9 ng/mL (≈ 0.00231 µM); in data set [2] (setting [15]), above 32 µg/mL; in [3] (setting [15]) it was 8 µg/mL (≈ 9.72 µM); in [4] (setting [15]) it was above 32 µg/mL; in data set [5] (setting [15]), above 32 µg/mL; in data set [6] (setting [15]), above 32 µg/mL. Further, the MIC in data set [7] (setting [15]) was above 32 µg/mL; in data set [8] (setting [15]), 32 µg/mL (≈ 38.9 µM); in data set [9] (setting [15]), 32 µg/mL (≈ 38.9 µM); in data set [10] (setting [15]), 4 µg/mL (≈ 4.86 µM); in [11] (setting [15]), above 32 µg/mL; in data set [12] (setting [15]), above 32 µg/mL. The figures for the MIC in data set [13] (setting [15]) and in data set [14] (setting [15]) were 4 µg/mL (≈ 4.86 µM) and 2 µg/mL (≈ 2.43 µM), respectively.
